These are literature values, as cited in patent publication US12569478B2 (priority 2021, dated 2026).

The conditions of this data set: in vivo.

Take `C=CCN1CC[C@]23c4c5ccc(O)c4O[C@H]2C(=O)CC[C@@]3(O)[C@H]1C5` [naloxone]: the half-life is given as around 60 min.

As a reminder, the half-life is the time needed for the level to fall by half in the phase considered.
